Laboratory results published in paper PMC6337588, “Multi-Target Cinnamic Acids for Oxidative Stress and Inflammation: Design, Synthesis, Biological Evaluation and Modeling Studies” (Molecules, 2018).
Several values for one entry are separate records, joined by “and”; a condition that tells them apart may be missing. Equal entries are not always repeated.

Tests used:
[1] = Non enzymatic assay of superoxide radical scavenging activity (PMS/NADH/NBT); format: biochemical
Description: Superoxide radical is a main cause of oxidative stress, expressing its biological toxicity by the inactivation of iron-sulfur cluster containing enzymes. The superoxide anion radical (O2^−^•) is less toxic than the hydroxyl radical, but still being one of the most known toxic reactive oxygen species (ROS). In this assay the superoxide anion radicals were generated by a non-enzymatically assay and the compounds are tested at 100 μM final concentration (Table 2). Caffeic acid (CA) has been used as a reference compound. Compound 4ii presented the highest activity, followed by compound 3ii. We succeeded to derive a quantitative-structure activity relationship model for this activity in which the topological polar surface (TPAS) of the compounds seem to govern the superoxide anion scavenging activity:% Superoxide Anion Scavenging Activity (100 µM) = 0.019 (±0.007) TPSA + 0.813 (±0.358) n = 6, r = 0.962, r^2 = 0.926, q^2 = 0.694, s = 0.122, Q = 7.885, F1,6 = 3.701, α = 0.1 clog P vs. TPSA 0.
The superoxide radicals are generated by mixing N-methylphenazonium methyl sulfate (PMS), NADH and air–oxygen and determined by the nitroblue tetrazolium method and measured at 560 nm (Table 2). Caffeic acid was used as reference compound [17, 18, 28].

[2] = target: T1, soybean lipoxygenase (Glycine max, UniProt P08170); experiment: Soybean lipoxygenase inhibition in vitro; format: biochemical; conditions: sodium linoleate 0.1 mM, 234 nm, read-out: LOX IC50
T1 construct: purchased Sigma Chemical, Co. (St. Louis)
T1 sequence (P08170 1-839): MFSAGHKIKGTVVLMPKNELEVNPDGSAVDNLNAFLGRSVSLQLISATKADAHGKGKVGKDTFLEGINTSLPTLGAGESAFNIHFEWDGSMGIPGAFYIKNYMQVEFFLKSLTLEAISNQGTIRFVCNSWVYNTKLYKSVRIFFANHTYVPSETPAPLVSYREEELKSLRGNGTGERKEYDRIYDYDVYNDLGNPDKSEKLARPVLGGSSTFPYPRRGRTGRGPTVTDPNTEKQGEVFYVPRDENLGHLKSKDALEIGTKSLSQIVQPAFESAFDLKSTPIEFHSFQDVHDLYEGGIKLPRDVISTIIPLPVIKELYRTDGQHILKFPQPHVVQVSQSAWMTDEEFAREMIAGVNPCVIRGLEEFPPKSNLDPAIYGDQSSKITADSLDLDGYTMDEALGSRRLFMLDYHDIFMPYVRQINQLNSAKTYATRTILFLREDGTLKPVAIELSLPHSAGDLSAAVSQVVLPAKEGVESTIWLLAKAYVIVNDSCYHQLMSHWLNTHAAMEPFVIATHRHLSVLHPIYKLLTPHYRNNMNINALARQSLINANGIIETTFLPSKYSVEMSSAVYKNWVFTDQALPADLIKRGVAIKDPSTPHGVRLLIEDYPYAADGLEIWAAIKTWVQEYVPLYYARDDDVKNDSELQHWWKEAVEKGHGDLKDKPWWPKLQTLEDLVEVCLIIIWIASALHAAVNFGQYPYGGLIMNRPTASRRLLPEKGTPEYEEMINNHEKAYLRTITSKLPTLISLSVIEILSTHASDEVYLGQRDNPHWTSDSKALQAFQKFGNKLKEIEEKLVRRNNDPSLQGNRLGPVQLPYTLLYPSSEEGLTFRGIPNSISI
Description: Many research groups have used readily obtainable soybean lipoxygenase, which is a homologue of mammalian lipoxygenase and well studied. Due to its availability and its well-characterised crystal structure, soybean LOX was selected to be used in this study.
In vitro study was evaluated as reported previously by our group. The tested compounds were incubated at room temperature with sodium linoleate (0.1 mM) and 0.2 mL of enzyme solution (1/9 × 104 w/v in saline). The method was based to the conversion of sodium linoleate to 13-hydroperoxylinoleic acid at 234 nm. […] In order to determine the IC50 values different concentrations were used.

[3] = Inhibition of linoleic acid peroxidation (AAPH); format: biochemical; conditions: anti-lipid peroxidation
Excerpt: We also used water-soluble 2,2′-[…](2-amidinopropane) hydrochloride (AAPH) for the generation of free radicals. AAPH has been extensively used as a clean and controllable source of thermally produced alkylperoxyl free radicals. The peroxyl radicals produced by the action of AAPH show total similarity to cellular activities such as lipid peroxidation. […] It seems that the presence of 3,5-di-tert-butyl-group greatly enhances protection against lipid peroxidation (6i/ii and 7i/ii followed by 3ii and 5ii). The lipid peroxidation inhibitory activity seems to be concentration dependent.
2,2’-Azobis(2-amidinopropane) dihydrochloride (AAPH) was used as a free radical initiator to start the oxidation reaction. The method was based on the production of conjugated diene hydroperoxide by oxidation of linoleic acid at 234 nm expressed as an increased absorption. Trolox was used as reference compound (93%) (Table 2).

[4] = ABTS+• decolorization assay; format: biochemical; conditions: 1 min, 734 nm
Description: No role for lipophilicity was found. Oxidation of ABTS with potassium persulfate generates directly the ABTS radical cation (ABTS^+•) with no involvement of an intermediary radical, which is then reduced upon adding electron-donating antioxidants.
In order to produce the ABTS radical cation (ABTS^+•), ABTS stock solution in water (7 mM) was mixed with potassium persulfate (2.45 mM) and left in the dark at room temperature for 12–16 h before use. Our published experimental technique was used (Table 2). The results are recorded after 1 min of the mixing solutions at 734 nm. The results were compared to the appropriate standard inhibitor Trolox.

[5] = Experimental lipophilicity as RM values by reversed phase TLC (RPTLC); format: physicochemical; conditions: methanol/water 77/23 with 0.1% acetic acid, 24 °C, average of at least 5 measurements
Excerpt: Lipophilicity is a physicochemical property correlated with the biological activity. Lipophilicity influences ligand-target binding interactions, solubility, absorption, distribution, bioavailability, metabolism and elimination (ADME) and toxicological outcomes. The lipophilicity of the novel cinnamic acids was experimentally measured as RM values using a reverse phase thin layer chromatography (RPTLC) method. This is acknowledged as a reliable, fast and convenient approach for expressing lipophilicity (Table 1). RM relates to the thermodynamic Rf value in a logarithmic form. Bate-Smith and Westall firstly determined lipophilicity as RM values in 1950 [31]. The Br-substituted derivatives 1i–7i are more lipophilic than the OH-substituted ones 1ii–7ii which can be easily explained by their structural characteristics.
Reversed phase TLC (RPTLC) was performed on silica gel plates impregnated with 55% (v/v) liquid paraffin in light petroleum ether. The mobile phase was a methanol/water mixture (77/23, v/v) containing 0.1% of acetic acid. The plates were developed in closed chromatography tanks saturated with the mobile phase at 24 °C. Spots were detected under UV light. RM values were determined from the corresponding Rf values (from five individual measurements) using the equation RM = log[(1/Rf) − 1] [17, 18, 28].

[6] = Competition with DMSO for hydroxyl radicals (Fe3+/ascorbic acid system); format: biochemical; conditions: hydroxyl radical scavenging
Description: Competition of the novel substituted acids with DMSO for hydroxyl radicals was measured. Hydroxyl radicals were generated using the Fe^3+/ascorbic acid system and expressed as a percentage inhibition of formaldehyde production in the presence of each compound at 100 μM (Table 2). All the synthesized derivatives strongly scavenge hydroxyl radicals at 100 μM in comparison to the reference compound Trolox.
The hydroxyl radicals generated by the Fe^3+/ascorbic acid system, were detected by the determination of formaldehyde produced from the oxidation of DMSO (Table 2). Trolox was used as reference compound [17, 18, 28].

[7] = Reducing activity of the stable radical DPPH; format: biochemical
Description: The substituted acids were monitored for the antioxidant activity by the use of the stable 2,2-diphenyl-1-picrylhydrazyl radical (DPPH) at concentration 50 µM and 100 µM after 20 and 60 min (Table 1). In this assay the DPPH radical is reduced by single electron transfer from the antioxidant. Strong antioxidants are the phenoxide anions from phenolic compounds like catechol and derivatives, such as nordihydroguaretic acid (NDGA), the reference compound. The compounds presented medium reducing abilities from 29–61%, due to steric reasons; small differences were found among the compounds with time and concentration. 4-Br-substituted-3 phenyl acetic acid derivatives (Series I) are equipotent to 4-OH-substituted-3 phenyl acetic acid derivatives (Series II). No differences were observed between 4i and 5i and 4ii and 5ii.
To a solution of DPPH in absolute ethanol an equal volume of the compounds dissolved in DMSO was added. The final concentrations of the measured solutions of the novel acids were 50 and 100 µM starting from a stock solution (10 mM) in DMSO. The absorbance was recorded at 517 nm, after 20 and 60 min at room temperature (Table 1).

Row | Compound | O2−•% 100 µM [1] | IC50 [2] | AAPH% 50 µM [3] | AAPH% 100 µM [3] | ABTS+•% 100 µM [4] | RM (±SD) [5] | melting point | HO•% 100 µM [6] | RA% 50 µM 20 min [7] | RA% 50 µM 60 min [7] | RA% 100 µM 20 min [7] | RA% 100 µM 60 min [7] | AAPH lipid peroxidation inhibition at 10 μΜ ([3]; 10 μΜ)
1 | O=C(O)/C=C/c1ccc(O)c(O)c1 [CA, Caffeic acid, reference compound] | 23% | – | – | – | – | – | – | – | – | – | – | – | –
2 | O=C(O)C(=Cc1cccc(Oc2ccccc2)c1)c1ccc(Br)cc1 [Compound 1i, 2-(4-Bromophenyl)-3-(3-phenoxyphenyl)acrylic acid] | 54% | 100 µM | 34% | 90% | 29% | −0.103 (0.009) | 152 to 153 °C | 94% | 38% | 37% | 44% | 46% | –
3 | O=C(O)C(=Cc1ccc(OCc2ccc(Br)cc2)cc1)c1ccc(Br)cc1 [Compound 2i, 3-(4-((4-Bromobenzyl)oxy)phenyl)-2-(4-bromophenyl)acrylic acid] | – | 76 µM | 48% | 96% | 32% | 0.605 (0.016) | – | 95% | 35% | 34% | 37% | 40% | –
4 | O=C(O)C(=Cc1ccc(OCc2ccc(Br)cc2)cc1)c1ccc(O)cc1 [Compound 2ii, 3-(4-((4-Bromobenzyl)oxy)phenyl)-2-(4-hydroxyphenyl)acrylic acid] | – | 77 µM | 49% | 87% | 47% | 0.061 (0.007) | – | 99% | 36% | 37% | 43% | 56% | –
5 | CN(C)c1ccc(C=CC=C(C(=O)O)c2ccc(Br)cc2)cc1 [Compound 3i, 2-(4-Bromophenyl)-5-(4-(dimethylamino)phenyl)penta-2,4-dienoic acid] | – | 7.4 µM | 43% | 88% | 83.4% and 83% | 0.582 (0.037) | 120 to 121 °C | 100% | 34% | 37% | 48% | 51% | –
6 | CC(=Cc1ccccc1)C=C(C(=O)O)c1ccc(Br)cc1 [Compound 5i, 2-(4-Bromophenyl)-4-methyl-5-phenylpenta-2,4-dienoic acid] | – | 77.5 µM | 10% | 98% | 30% | 0.683 (0.015) | 128 to 129 °C | 82% | 33% | 33% | 36% | 38% | 9.6%
7 | CC(C)(C)c1cc(C=C(C(=O)O)c2ccc(Br)cc2)c(O)c(C(C)(C)C)c1 [Compound 6i, 2-(4-Bromophenyl)-3-(3,5-di-tert-butyl-2-hydroxyphenyl)acrylic acid] | – | 60 µM | 56% | 100% | 53% | 0.480 (0.035) | 168 to 170 °C | 100% | 38% | 36% | 44% | 39% | –
8 | CC(C)(C)c1cc(C=C(C(=O)O)c2ccc(O)cc2)c(O)c(C(C)(C)C)c1 [Compound 6ii, 3-(3,5-di-tert-Butyl-2-hydroxyphenyl)-2-(4-hydroxyphenyl)acrylic acid] | – | 74 µM | 64% | 96% | 38% | 0.622 (0.025) | 134 to 136 °C | 100% | 43% | 36% | 31% | 36% | –
9 | CC(Cc1ccc(O)c(O)c1)C(C)Cc1ccc(O)c(O)c1 (stereo not shown) [NDGA, nordihydroguaretic acid, reference compound] | – | – | – | – | – | – | – | – | 81% | 83% | 87% | 93% | –
10 | Cc1c(C)c2c(c(C)c1O)CCC(C)(C(=O)O)O2 (stereo not shown) [Trolox, reference compound] | – | – | – | 93% | 88% | – | – | 73% | – | – | – | – | –
